Experimental data published in patent US20140011769A1, “Methods of Treating Retroviral Infections and Related Dosage Regimes” (Chimerix, Inc., priority 2012, published 2014).
Read-outs that look alike come from different tables or passages of the source.

Assays:
infected PBMCs = test: Cell viability of infected PBMCs by trypan blue dye exclusion; format: cell-based, human; conditions: for toxicity as fresh compound was added to the cultures up to day 10: infected PBMC cultures; for CC50: infected PBMCs, read-out: HTLV-I TC50
Procedure: (§1) Co-Culture for HTLV-I Replication: Cell cultures were incubated at 37° C./5% CO2 for four weeks. Cell viability and density was monitored by trypan blue dye exclusion test. Cell density was readjusted to 8×10^5 cells per mL on days 3, 7, 10, 14, 21 and 28. Compound was added with the half-volume fresh medium exchange on days 3, 7, and 10. Supernatant was collected on days 14, 21 and 28 for measurement of HTLV-I virus replication by p19 Gag ELISA. Cell samples were also collected on days 14 and 28 for genomic DNA extraction and PCR analysis of HTLV-I proviral DNA. Untreated PBMCs co-cultured with MT-2 cells, PBMCs alone, and mitomycin C-treated MT-2 cells alone were cultured in parallel as controls.
(§2) Anti-HTLV-I Evaluations: HDP-TFV K^+ salt and tenofovir were evaluated for HTLV-I inhibition in human PBMCs co-cultured with mitomycin C treated MT-2 cells at four concentrations of each compound. AZT was evaluated in parallel as a control compound. […] Cell viability was monitored by trypan blue dye exclusion. AZT and tenofovir were not toxic to the infected PBMCs at concentrations up to 25 μM at 2, 3, or 4 weeks post infection.
as §2, with “Evaluations: HDP-CDV” for “Evaluations: HDP-TFV K^+ salt”, “and cidofovir” for “and tenofovir”, “AZT was” for “AZT and tenofovir were”

[1] = as above; format: cell-based, human; conditions: human, infected PBMCs, read-out: HTLV-I TC50; for CC50 at 2 weeks: 2 wks post infection; for CC50 at 3 weeks: 3 wks post infection; for CC50 at 4 weeks: 4 wks post infection
Procedure: as §1, §2
as §2, with “Evaluations: HDP-CDV” for “Evaluations: HDP-TFV K^+ salt”, “and cidofovir” for “and tenofovir”, “AZT was” for “AZT and tenofovir were”

HTLV-I proviral DNA = test: PCR of proviral HTLV-I DNA in co-cultured PBMCs; format: cell-based; conditions: for relative intensity of amplified HTLV-I versus infected controls (PBMC+MT-2 cells): two and four weeks, all concentrations; for concentration giving less integration of proviral DNA by PCR: weeks 2 and 4
Procedure: as §1
(§3) PCR of Proviral HTLV-I DNA: The presence of HTLV-I proviral DNA at 2 and 4 weeks in treated and untreated PBMC cells was examined using a PCR assay. Total DNA was extracted from frozen cell pellets using Qiagen DNEasy Blood and Tissue kits according to the manufacturer's recommended method for extraction from cultured cells. DNA was eluted in 200 μl of Buffer AE and the concentration was determined by absorbance at 260 nm in a Spectramax 386 Plus plate reader. Fifty nanograms of extracted DNA was subjected to two separate PCR amplifications using primer sets for HTLV-I and human GAPDH. Amplifications were performed using PCR primer sets designed at ImQuest BioSciences and synthesized by IDT (Coraville, Id.). Amplification of HTLV-I proviral DNA was performed using 50 ng of extracted DNA in a 25 μl reaction volume with TaqPro complete (Denville Scientific, Metuchen, N.J.) and DNA oligonucleotide primers (0.2 μM each) HTLV-3281-F (5′-AACTTCAAGCCCTACTTGGCGAGA-3′[SED ID NO.: 1]) and HTLV-3666-R (5′-TGTATGGTTTGGCAGAGTAGCCCA-3′ [SED ID NO.: 2]). Amplification of human GAPDH DNA sequences was performed using 50 ng of extracted DNA in a 25 μl reaction volume with TaqPro complete and DNA oligonucleotide primers (0.2 μM each) hGAPDH-gF1 (5′-GAAGGAAATGAATGGGCAGCCGTT-3′ [SED ID NO.: 3]) and GAPDH-gR1 (5′-ATTTGCCAAGTTGCCTGTCCTTCC-3′ [SED ID NO.: 4]). Amplification conditions for both HTLV-I and GAPDH consisted of an initial denaturation step of 95° C. for 5 min followed by 40 cycles of 95° C. for 30 sec, 62° C. for 30 sec, 72° C. for 45 sec and a final extension of 72° C. for 5 min. The amplified DNA products were evaluated by agarose gel electrophoresis and ethidium bromide staining.
as §3, with “AGA-3′ [SED” for “AGA-3′[SED”, “5])” for “1])”, “6]).” for “2]).”, “7])” for “3])”, “8]). […]” for “4]). Amplification conditions for both HTLV-I and GAPDH consisted of an initial denaturation step of 95° C. for 5 min followed by 40 cycles of 95° C. for 30 sec, 62° C. for 30 sec, 72° C. for 45 sec and a final extension of 72° C. for 5 min. The amplified DNA products were evaluated by agarose gel electrophoresis and ethidium bromide staining.”

[2] = concentrations up to 25 μM at 2, 3, or 4 weeks post infection

SMILES | toxicity to the infected PBMCs (infected PBMCs; 100 μM, following 4 weeks in culture) | CC50 at 2 weeks [1] [µM] | CC50 at 3 weeks [1] [µM] | CC50 at 4 weeks [1] [µM] | concentration inhibiting accumulation of HTLV proviral DNA (HTLV-I proviral DNA; two weeks of treatment) [µM] | toxicity as fresh compound was added to the cultures up to day 10 (infected PBMCs) | inhibition of HTLV proviral DNA accumulation (HTLV-I proviral DNA; four weeks of treatment, lower concentrations) | CC50 (infected PBMCs; 2 wks post infection) [µM] | CC50 (infected PBMCs; 3 wks post infection) [µM] | CC50 (infected PBMCs; 4 wks post infection) [µM] | toxicity to the infected PBMCs (infected PBMCs; [2]) | relative intensity of amplified HTLV-I versus infected controls (PBMC+MT-2 cells) (HTLV-I proviral DNA) | concentration giving less integration of proviral DNA by PCR (HTLV-I proviral DNA) | concentration inhibiting accumulation of HTLV proviral DNA (HTLV-I proviral DNA; four weeks of treatment)
Nc1ccn(C[C@@H](CO)OCP(=O)(O)O)c(=O)n1 [Cidofovir, (S)-9-(3-hydroxy-2-phosphonylmethoxypropyl)cytosine] | slightly toxic | > 100 | > 100 | 80 | 100 | – | – | – | – | – | – | – | – | –
CCCCCCCCCCCCCCCCOCCCOP(=O)(O)CO[C@H](C)Cn1cnc2c(N)ncnc21 [HDP-TFV, 3-(hexadecyloxy)propyl hydrogen ((R)-1-(6-amino-9H-purin 9-yl)propan-2-yloxy)methylphosphonate] | – | > 10 | 6.3 | 1 | – | increasingly toxic | apparent | – | – | – | – | – | – | –
C[C@H](Cn1cnc2c(N)ncnc21)OCP(=O)(O)O [Tenofovir, (R)-9-(2-phosphonylmethoxypropyl)adenine] | – | – | – | – | – | – | – | > 25 | > 25 | > 25 | not toxic | either equal or less than | 25 µM | –
CCCCCCCCCCCCCCCCOCCCOP(=O)(O)CO[C@H](CO)Cn1ccc(N)nc1=O [HDP-CDV, hexadecyloxypropyl cidofovir] | – | 7.5 | 3.2 | 1.4 | ≥ 0.2 | increasingly toxic | – | – | – | – | – | – | – | all concentrations
Cc1cn([C@H]2C[C@H](N=[N+]=[N-])[C@@H](CO)O2)c(=O)[nH]c1=O [AZT, 3′-azido-2′,3′-dideoxythymidine] | – | > 25 | > 25 | > 25 | – | – | – | – | – | – | not toxic | either equal or less than | above 0.1 μM | –
